As a reminder, the IC50 is the concentration needed to halve the response being measured.

The structures appear in SMILES notation.

What all share (assay type): biochemical
The target of one assay is T1, human DPP9 (Homo sapiens, UniProt Q86TI2).
T1 construct: made in house; host or cells: Sf9 insect cells (baculovirus)
Briefly: DPP9 IC50 measurement (Ala-Pro-pNA). The note with it: for IC50: Ala-Pro-pNA 150 μM, pH 7.4; for Selectivity index DPP9: IC50(DPP9)/IC50(FAP). From the text: (§1) Used Enzymes in these Assays: • A gateway-entry clone for human FAP was purchased from Dharmacon (Accession number DQ891423) and the human secretion signal was replaced with the HoneyBee mellitin secretion signal. For transfection and expression of FAP in Sf9 insect cells the C-terminal BaculoDirect kit from LifeTechnologies was used. The enzyme was purified from the supernatant of the insect cells using immobilized Ni-chelating chromatography (GE healthcare, Diegem, Belgium), followed by anion-exchange chromatography using a 1 mL HiTrap Q and size exclusion chromatography using the Superdex 200 column (GE healthcare, Diegem, Belgium). • Human recombinant PREP was expressed in BL21(DE3) cells and purified using immobilized Co-chelating chromatography (GE healthcare), followed by anion-exchange chromatography on a 1 ml Mono Q column (GE healthcare). • DPP4 was purified from human seminal plasma. • Gateway-entry clones for human DPP8 and DPP9 were purchased from Dharmacon (Accession numbers DQ891733 and DQ892325 respectively). For transfection and expression of DPP8 and DPP9 in Sf9 insect cells the N-terminal BaculoDirect kit from LifeTechnologies was used. The enzymes were purified using immobilized Ni-chelating chromatography (GE healthcare, Diegem, Belgium), followed by anion-exchange chromatography using a 1 mL Mono Q (GE healthcare, Diegem, Belgium). • Recombinant human DPP2 was purchased from R&D.
(§2) Eight concentrations of inhibitors/probe were tested. The final DMSO concentration was kept constant during the experiment to exclude any effects. Inhibitors were pre-incubated with the enzyme for 15 minutes at 37° C., afterwards the substrate was added and the velocities of AMC release were measured kinetically at λex=380 nm, λem=465 nm for at least 10 minutes at 37° C. […] Eight concentrations of inhibitors were tested. The final DMSO concentration in kept constant during the experiment to exclude any effects. Inhibitors were pre-incubated with the enzyme for 15 minutes at 37° C., afterwards the substrate was added and the velocities of AMC release were measured kinetically at λex=380 nm, λem=465 nm for at least 10 minutes at 37° C. […] At least eight different inhibitor concentrations were used. The final DMSO concentration is kept constant during the experiment to exclude any effects. Inhibitors were pre-incubated with the enzyme for 15 minutes at 37° C., afterwards the substrate was added and the velocities of pNA release were measured kinetically at 405 nm for at least 10 minutes at 37° C. Measurements were done on the Infinite 200 (Tecan Group Ltd.) and the Magellan software was used to process the data. • For DPP2: Initial velocity measurements were carried out. Lys-Ala-pNA was used as the substrate at a concentration of 1 mM at pH 5.5 (100 mM NaAc, 10 mM EDTA, 14 μg/mL aprotinin). Inhibitors were tested at one concentration, 5 μM, being the final concentration in the well. Inhibitors were pre-incubated with the enzyme for 15 minutes at 37° C., afterwards the substrate was added and the velocities of pNA release were measured kinetically at 405 nm for at least 10 minutes at 37° C. Measurements were done on the Infinite 200 (Tecan Group Ltd.) and the Magellan software was used to process the data.

For the next assay, the target named is T2, Human recombinant PREP (Homo sapiens, UniProt P48147).
T2 construct: made in house; host or cells: E. coli BL21(DE3)
T2 sequence (P48147 1-710): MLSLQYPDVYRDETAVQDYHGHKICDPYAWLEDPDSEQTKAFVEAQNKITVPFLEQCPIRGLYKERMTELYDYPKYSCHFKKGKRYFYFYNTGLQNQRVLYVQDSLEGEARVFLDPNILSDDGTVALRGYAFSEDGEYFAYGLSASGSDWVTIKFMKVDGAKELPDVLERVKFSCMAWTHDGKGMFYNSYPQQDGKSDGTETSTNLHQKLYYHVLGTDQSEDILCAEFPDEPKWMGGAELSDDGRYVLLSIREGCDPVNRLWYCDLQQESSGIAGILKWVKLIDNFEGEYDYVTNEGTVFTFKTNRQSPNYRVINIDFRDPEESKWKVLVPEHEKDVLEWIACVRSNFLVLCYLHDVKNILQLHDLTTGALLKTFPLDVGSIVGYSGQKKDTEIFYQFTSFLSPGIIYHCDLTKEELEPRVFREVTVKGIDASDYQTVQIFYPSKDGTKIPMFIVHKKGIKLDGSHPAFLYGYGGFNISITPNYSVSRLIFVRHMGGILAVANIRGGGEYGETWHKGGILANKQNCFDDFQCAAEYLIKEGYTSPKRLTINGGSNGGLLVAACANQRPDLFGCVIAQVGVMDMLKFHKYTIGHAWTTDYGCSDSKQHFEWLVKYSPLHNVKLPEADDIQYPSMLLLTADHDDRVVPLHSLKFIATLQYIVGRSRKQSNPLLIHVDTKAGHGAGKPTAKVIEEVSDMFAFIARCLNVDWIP
Briefly: PREP IC50 measurement (N-succinyl-Gly-Pro-AMC). The note with it: for Selectivity index PREP: IC50(PREP)/IC50(FAP); for IC50: N-succinyl-Gly-Pro-AMC 250 μM, pH 7.4.
Excerpt: as §1, §2

The next assay addresses T3, DPP4 (Homo sapiens, UniProt P27487).
T3 construct: DPP4 was purified from human seminal plasma; from tissue; host or cells: human seminal plasma
Briefly: DPP4 IC50 measurement (Ala-Pro-pNA). The note with it: for IC50: Ala-Pro-pNA 25 μM, pH 7.4; for Selectivity index DPP4: IC50(DPP4)/IC50(FAP).
Excerpt: as §1, §2

The target in the next assay is T4, human FAP (Homo sapiens, UniProt Q12884).
T4 construct: the human secretion signal was replaced with the HoneyBee mellitin secretion signal; honeybee melittin secretion signal (replaces the native signal) (N); made in house; host or cells: Sf9 insect cells (baculovirus), purified from supernatant
T4 sequence (Q12884 26-760 limits assumed): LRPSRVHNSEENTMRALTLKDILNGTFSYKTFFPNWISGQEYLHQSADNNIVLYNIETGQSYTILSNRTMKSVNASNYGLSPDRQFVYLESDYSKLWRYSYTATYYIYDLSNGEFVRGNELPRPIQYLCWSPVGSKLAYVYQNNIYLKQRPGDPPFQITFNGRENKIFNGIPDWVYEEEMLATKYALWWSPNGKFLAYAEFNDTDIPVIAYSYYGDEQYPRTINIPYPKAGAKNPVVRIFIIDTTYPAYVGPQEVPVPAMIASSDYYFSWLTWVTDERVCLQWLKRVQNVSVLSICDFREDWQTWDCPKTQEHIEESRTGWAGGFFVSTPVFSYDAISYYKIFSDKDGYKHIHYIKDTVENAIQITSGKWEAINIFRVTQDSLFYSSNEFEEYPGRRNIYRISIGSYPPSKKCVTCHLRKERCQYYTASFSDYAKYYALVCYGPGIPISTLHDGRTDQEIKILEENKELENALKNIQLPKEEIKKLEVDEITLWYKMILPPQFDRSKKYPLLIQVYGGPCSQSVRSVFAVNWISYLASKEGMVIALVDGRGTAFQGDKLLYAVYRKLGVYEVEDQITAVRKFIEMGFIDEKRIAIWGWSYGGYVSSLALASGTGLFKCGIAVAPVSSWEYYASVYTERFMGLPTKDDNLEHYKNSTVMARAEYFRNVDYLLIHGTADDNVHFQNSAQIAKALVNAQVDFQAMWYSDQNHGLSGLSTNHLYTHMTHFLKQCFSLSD
Kind of assay: FAP IC50 measurement (Z-Gly-Pro-AMC). The note with it: Z-Gly-Pro-AMC 50 μM, pH 8, 15 min pre-incubation.
Excerpt: as §1, §2

In a further assay the target is T5, human DPP8 (Homo sapiens, UniProt Q6V1X1).
T5 construct: made in house; host or cells: Sf9 insect cells (baculovirus)
Kind of assay: DPP8 IC50 measurement (Ala-Pro-pNA). The note with it: for IC50: Ala-Pro-pNA 300 μM, pH 7.4, read-out: DPP8 IC50; for Selectivity index DPP8: IC50(DPP8)/IC50(FAP).
Excerpt: as §1, §2

T1 sequence (Q86TI2 whole entry): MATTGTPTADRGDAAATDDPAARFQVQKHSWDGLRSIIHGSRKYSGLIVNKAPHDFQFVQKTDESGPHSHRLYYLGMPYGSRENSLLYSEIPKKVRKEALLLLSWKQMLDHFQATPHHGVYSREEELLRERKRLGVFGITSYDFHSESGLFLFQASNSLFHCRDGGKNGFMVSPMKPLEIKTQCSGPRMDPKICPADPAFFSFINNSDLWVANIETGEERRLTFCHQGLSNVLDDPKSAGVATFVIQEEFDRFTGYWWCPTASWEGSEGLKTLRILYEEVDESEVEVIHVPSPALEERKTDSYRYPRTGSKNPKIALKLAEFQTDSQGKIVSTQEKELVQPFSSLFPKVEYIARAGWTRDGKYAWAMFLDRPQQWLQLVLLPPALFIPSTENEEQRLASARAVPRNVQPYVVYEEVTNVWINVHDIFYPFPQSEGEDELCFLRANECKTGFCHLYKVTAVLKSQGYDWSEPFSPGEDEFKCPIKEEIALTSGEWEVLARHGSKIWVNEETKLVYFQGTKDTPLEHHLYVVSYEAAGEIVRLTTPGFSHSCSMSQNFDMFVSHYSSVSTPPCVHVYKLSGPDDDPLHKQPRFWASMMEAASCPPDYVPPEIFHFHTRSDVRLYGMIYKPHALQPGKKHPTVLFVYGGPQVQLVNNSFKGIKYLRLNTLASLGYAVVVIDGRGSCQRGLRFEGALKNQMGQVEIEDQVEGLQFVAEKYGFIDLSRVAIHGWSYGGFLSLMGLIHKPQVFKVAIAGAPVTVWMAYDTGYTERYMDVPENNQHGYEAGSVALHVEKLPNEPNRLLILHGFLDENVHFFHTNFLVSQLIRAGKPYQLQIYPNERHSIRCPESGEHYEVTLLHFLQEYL
T5 sequence (Q6V1X1 whole entry): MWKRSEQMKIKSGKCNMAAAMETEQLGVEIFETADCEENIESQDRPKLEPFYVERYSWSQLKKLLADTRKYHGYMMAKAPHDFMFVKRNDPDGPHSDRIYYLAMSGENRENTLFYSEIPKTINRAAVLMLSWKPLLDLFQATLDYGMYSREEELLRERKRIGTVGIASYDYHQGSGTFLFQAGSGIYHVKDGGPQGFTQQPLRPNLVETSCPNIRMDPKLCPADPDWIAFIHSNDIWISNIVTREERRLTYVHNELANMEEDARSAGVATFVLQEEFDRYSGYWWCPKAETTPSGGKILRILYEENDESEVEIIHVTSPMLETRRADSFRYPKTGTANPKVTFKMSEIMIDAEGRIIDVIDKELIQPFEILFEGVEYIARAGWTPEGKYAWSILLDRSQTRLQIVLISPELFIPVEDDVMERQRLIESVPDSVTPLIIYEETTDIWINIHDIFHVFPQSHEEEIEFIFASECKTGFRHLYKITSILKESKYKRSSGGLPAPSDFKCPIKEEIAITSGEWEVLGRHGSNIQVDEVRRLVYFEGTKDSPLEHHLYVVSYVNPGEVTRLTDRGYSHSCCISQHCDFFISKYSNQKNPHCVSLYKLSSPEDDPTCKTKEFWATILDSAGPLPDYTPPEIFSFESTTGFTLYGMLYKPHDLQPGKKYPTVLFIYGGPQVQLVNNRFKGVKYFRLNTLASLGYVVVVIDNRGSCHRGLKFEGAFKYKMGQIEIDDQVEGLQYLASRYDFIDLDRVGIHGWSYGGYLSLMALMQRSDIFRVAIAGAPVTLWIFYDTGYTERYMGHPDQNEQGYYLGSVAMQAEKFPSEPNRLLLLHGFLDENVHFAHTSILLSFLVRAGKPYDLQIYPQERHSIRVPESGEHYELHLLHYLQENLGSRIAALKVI
T3 sequence (P27487 whole entry): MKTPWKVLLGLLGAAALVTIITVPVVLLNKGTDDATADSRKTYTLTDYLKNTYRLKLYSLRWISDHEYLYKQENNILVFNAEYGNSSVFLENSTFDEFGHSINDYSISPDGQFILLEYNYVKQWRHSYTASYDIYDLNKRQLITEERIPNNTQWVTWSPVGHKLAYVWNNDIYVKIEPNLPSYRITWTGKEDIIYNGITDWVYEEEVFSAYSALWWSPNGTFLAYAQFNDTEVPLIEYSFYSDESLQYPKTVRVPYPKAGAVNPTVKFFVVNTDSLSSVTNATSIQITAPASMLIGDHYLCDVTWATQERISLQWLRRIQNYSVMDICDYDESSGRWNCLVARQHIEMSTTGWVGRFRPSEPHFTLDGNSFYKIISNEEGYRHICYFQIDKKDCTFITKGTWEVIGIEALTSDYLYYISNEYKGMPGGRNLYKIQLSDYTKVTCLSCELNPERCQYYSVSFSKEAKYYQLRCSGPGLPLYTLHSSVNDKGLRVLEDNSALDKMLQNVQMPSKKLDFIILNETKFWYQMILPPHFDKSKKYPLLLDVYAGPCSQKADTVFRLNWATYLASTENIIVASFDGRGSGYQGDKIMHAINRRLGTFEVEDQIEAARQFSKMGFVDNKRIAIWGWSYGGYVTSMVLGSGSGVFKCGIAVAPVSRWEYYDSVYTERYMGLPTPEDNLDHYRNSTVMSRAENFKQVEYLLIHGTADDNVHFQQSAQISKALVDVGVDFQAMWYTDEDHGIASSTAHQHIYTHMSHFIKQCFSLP

Take `C[N+](C)(CF)CCOCCOCCOc1ccc2nccc(C(=O)NCC(=O)N3CC(F)(F)C[C@H]3C#N)c2c1` [Compound 10, (S)-2-(2-(2-((4-((2-(2-cyano-4,4-difluoropyrrolidin-1-yl)-2-oxoethyl)carbamoyl)quinolin-6-yl)oxy)ethoxy)ethoxy)-N-(fluoromethyl)-N,N-dimethylethan-1-aminium hexafluorophosphate(V)]: on human DPP9, the IC50 is more than 10 µM and the “Selectivity index DPP9” value was more than 21000. Also, on Human recombinant PREP, the “Selectivity index PREP” value was more than 2100 and the IC50 is more than 1 µM. For the same compound, on DPP4, the IC50 was more than 1 µM and the “Selectivity index DPP4” value is listed as more than 2100. This compound also gave an IC50 against human FAP of 0.00046 ± 4e-05 µM. Besides, at human DPP8, the IC50 is more than 10 µM and the “Selectivity index DPP8” value is more than 21000.

Regarding `C[N+](C)(CF)CCCOc1ccc2nccc(C(=O)NCC(=O)N3CC(F)(F)C[C@H]3C#N)c2c1.Cc1ccc(S(=O)(=O)[O-])cc1` [Compound 4a, (S)-3-((4-((2-(2-cyano-4,4-difluoropyrrolidin-1-yl)-2-oxoethyl)carbamoyl)quinoline-6-yl)oxy)-N-(fluoromethyl)-N,N-dimethylpropan-1-aminium benzenesulfonate], the IC50 at human DPP9 is more than 10 µM; on Human recombinant PREP, more than 10 µM; at DPP4, more than 10 µM; against human FAP, 0.00032 ± 2e-05 µM; on human DPP8 it was more than 10 µM. For the same compound, at human DPP9, the “Selectivity index DPP9” value was more than 31000. In addition, on Human recombinant PREP, the “Selectivity index PREP” value is on record as more than 31000. For the same compound, the “Selectivity index DPP4” value at DPP4 is given as more than 31000. At human DPP8, the “Selectivity index DPP8” value is more than 31000.

As for `C[N+]1(CCCOc2ccc3nccc(C(=O)NCC(=O)N4CC(F)(F)C[C@H]4C#N)c3c2)CCN(C(=O)c2ccc(I)cc2)CC1` [Compound 13, (S)-1-(3-((4-((2-(2-cyano-4,4-difluoropyrrolidin-1-yl)-2-oxoethyl)carbamoyl)quinolin-6-yl)oxy)propyl)-4-(4-iodobenzoyl)-1-methylpiperazin-1-ium hexafluorophosphate(V)], on human DPP9, the IC50 stood at 0.67 ± 0.03 µM and the “Selectivity index DPP9” value is recorded as more than 2200. Also, at Human recombinant PREP, the “Selectivity index PREP” value is reported as more than 22000 and the IC50 is more than 10 µM. For the same compound, on DPP4, the 50% inhibitory concentration (IC50) is more than 10 µM and the “Selectivity index DPP4” value was more than 22000. Moreover, the IC50 at human FAP is 0.00044 ± 0.0001 µM. For the same compound, on human DPP8, the IC50 was more than 1 µM and the “Selectivity index DPP8” value is more than 2200.

Turning to `C[N+](C)(CF)CCOc1ccc2nccc(C(=O)NCC(=O)N3CC(F)(F)C[C@H]3C#N)c2c1.Cc1ccc(S(=O)(=O)[O-])cc1` [Compound 4b, (S)-2-((4-((2-(2-cyano-4,4-difluoropyrrolidin-1-yl)-2-oxoethyl)carbamoyl)quinoline-6-yl)oxy)-N-(fluoromethyl)-N,N-dimethylethan-1-aminium 4-methylbenzenesulfonate], the IC50 is more than 10 µM against human DPP9; more than 10 µM at Human recombinant PREP; more than 10 µM on DPP4; 0.00253 ± 0.00013 µM against human FAP; more than 10 µM on human DPP8. In addition, the “Selectivity index DPP9” value on human DPP9 was more than 4800. In addition, the “Selectivity index PREP” value was 4853 on Human recombinant PREP (4-methylbenzenesulfonate) and more than 4800 at Human recombinant PREP (listed as UAMC-0005086, 4-methylbenzenesulfonate). In addition, the “Selectivity index DPP4” value at DPP4 is more than 4800. In addition, the “Selectivity index DPP8” value on human DPP8 is reported as more than 4800.

(Values after patent US20250339566A1, “INHIBITORS OF FIBROBLAST ACTIVATION PROTEIN” (UNIVERSITEIT ANTWERPEN, priority 2022, published 2025).)
